Measurements reported in paper PMC5028038, “Demethoxycurcumin Is A Potent Inhibitor of P-Type ATPases from Diverse Kingdoms of Life” (PLoS ONE, 2016).
Converted amounts (≈) assume the structure as drawn. Where two headings read alike, the source gives them in different places.

What was measured:
[1] = molecular target: T1, A. thaliana PM H+-ATPase isoform AHA2 (Arabidopsis thaliana, UniProt P19456); experiment: ATP hydrolysis (Baginski) assay on AHA2 in yeast plasma membranes; type: biochemical; details: for effect on AHA2 ATPase activity: 50 μM compound; for slope factor H of inhibition curve, AHA2: variable slope fit
T1 construct: made in house; host or cells: S. cerevisiae strain RS-72, plasma membranes isolated
T1 sequence (P19456 1-948): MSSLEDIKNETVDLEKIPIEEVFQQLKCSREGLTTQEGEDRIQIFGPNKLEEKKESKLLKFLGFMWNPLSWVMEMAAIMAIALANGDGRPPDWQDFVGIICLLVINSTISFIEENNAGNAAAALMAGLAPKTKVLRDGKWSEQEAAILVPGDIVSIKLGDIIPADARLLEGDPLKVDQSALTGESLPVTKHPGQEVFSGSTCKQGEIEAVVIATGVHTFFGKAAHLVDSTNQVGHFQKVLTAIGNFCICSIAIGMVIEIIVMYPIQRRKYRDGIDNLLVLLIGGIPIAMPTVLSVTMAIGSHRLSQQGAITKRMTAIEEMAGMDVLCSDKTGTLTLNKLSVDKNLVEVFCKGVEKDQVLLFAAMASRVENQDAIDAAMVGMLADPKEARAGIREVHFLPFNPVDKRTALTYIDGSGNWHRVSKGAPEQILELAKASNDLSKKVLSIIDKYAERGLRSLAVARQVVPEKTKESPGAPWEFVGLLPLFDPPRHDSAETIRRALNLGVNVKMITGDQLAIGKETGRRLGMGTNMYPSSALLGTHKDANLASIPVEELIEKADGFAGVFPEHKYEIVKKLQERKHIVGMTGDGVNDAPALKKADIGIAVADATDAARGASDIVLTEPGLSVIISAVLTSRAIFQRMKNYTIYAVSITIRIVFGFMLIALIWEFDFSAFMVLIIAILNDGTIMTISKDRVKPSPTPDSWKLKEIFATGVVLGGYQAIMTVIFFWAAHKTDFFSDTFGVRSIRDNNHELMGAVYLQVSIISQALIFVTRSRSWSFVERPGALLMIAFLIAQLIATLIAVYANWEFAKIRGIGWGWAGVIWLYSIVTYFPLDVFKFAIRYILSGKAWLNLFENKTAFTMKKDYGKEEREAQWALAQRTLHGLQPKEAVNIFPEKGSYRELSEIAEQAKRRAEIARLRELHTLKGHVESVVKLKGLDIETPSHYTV
Source text: (§1) The S. cerevisiae strain RS-72 (MATa ade1-100 his4-519 leu2-3, 112) was transformed according to the lithium acetate/single-stranded carrier DNA/polyethylene glycol method, and cultured essentially as described previously. In RS-72, the promoter of the endogenous yeast PM H^+-ATPase PMA1 gene was replaced by the galactose-dependent GAL1 promoter. This strain grew in media containing galactose, whereas growth in glucose-based medium requires the complementation of the yeast PM H^+-ATPase with a functional PM H^+-ATPase expressed from a plasmid. A 2-micron yeast expression vector was used for expression of different versions of the Arabidopsis thaliana PM H^+-ATPase AHA2 (pMP 1625); a 92-amino acid C-terminal truncated mutation, aha2∆92 (pMP 132); or the wild-type S. cerevisiae PM H^+-ATPase PMA1 (pMP 400) placed under the control of the PMA1 promoter. The use of RS-72 allows for purification of microsomes with a very low endogenous ATPase activity compared to RS-72 transformed with an H^+-ATPase carrying plasmid.
(§2) Yeast expressing AHA2 and Pma1p PM H^+-ATPase, respectively, were grown and harvested essentially as described. The cells were grown with glucose as carbon source in order to ensure than no endogenous plasma membrane H^+-ATPase is expressed. Microsomes and plasma membranes were isolated with all manipulations performed at 4°C. The final pellets containing the isolated membranes were collected and homogenized in GTED20 buffer (20% [v/v] glycerol, 10 mM Tris-HCl pH 7.5, 1 mM EDTA pH 8.0, 1 mM DTT) and stored at—80°C.
(§3) ATPase activity was determined by the Baginski assay as described previously using 2–5 μg of PM protein. The assays were performed at 30°C in 300 μL volumes with 3 mM ATP, pH 6.5, for determination of AHA2 activity, or with 5 mM ATP, pH 5.9 for Pma1p activity. The assay medium 20 mM MOPS, 50 mM KNO3 (to inhibit vacuolar ATPase), 5 mM NaN3 (to inhibit mitochondrial ATPase), 3.5 mM Na2MoO4 (to inhibit acid phosphatase), 1 mM Mg^2+ free in solution, and the indicated concentrations of MgATP. IC50 values for compound inhibition were determined by pre incubating PM with different concentrations of compound for 30 min at room temperature. For kinetics studies, the concentration of ATP was varied between 0.125 and 8 mM using an ATP regenerating system (5 mM phosphoenolpyruvate and 50 μg/mL pyruvate kinase).
(§4) The kinetic of inhibition for DMCM was determined by monitoring the rate of ATP hydrolysis reaction in the presence of increasing ATP substrate concentration. All kinetic data were gathered from experiments performed in the cuvette-based assay, as described above. The data were used in Hanes-Woolf analysis followed by fitting to the appropriate Michaelis-Menten inhibition equation (competitive, noncompetitive, uncompetitive, or mix type inhibition). The kinetic parameters Vmax, Km, Ki were estimated by nonlinear regression using GraphPad Prism 5.0 (GraphPad Software Inc.). For evaluation of inhibitor potency, IC50 values were calculated by using the equation: A=100/1+10^(LogIC50−LogC)×H where A is the observed % ATPase activity in the presence of compound; C, the compound concentration; IC50, the concentration that caused 50% inhibition of the maximal compound effect; and H, the slope factor.

[2] = molecular target: T2, yeast plasma membrane H+-ATPase Pma1p (Saccharomyces cerevisiae, UniProt P05030); experiment: ATP hydrolysis (Baginski) assay on Pma1p in yeast plasma membranes; type: biochemical, S. cerevisiae; details: for effect on Pma1p ATPase activity: 50 μM compound; for slope factor H of inhibition curve, Pma1p: variable slope fit
T2 construct: made in house; host or cells: S. cerevisiae strain RS-72 (chromosomal PMA1 under GAL1 promoter, repressed on glucose), plasma membranes isolated
T2 sequence (P05030 whole entry): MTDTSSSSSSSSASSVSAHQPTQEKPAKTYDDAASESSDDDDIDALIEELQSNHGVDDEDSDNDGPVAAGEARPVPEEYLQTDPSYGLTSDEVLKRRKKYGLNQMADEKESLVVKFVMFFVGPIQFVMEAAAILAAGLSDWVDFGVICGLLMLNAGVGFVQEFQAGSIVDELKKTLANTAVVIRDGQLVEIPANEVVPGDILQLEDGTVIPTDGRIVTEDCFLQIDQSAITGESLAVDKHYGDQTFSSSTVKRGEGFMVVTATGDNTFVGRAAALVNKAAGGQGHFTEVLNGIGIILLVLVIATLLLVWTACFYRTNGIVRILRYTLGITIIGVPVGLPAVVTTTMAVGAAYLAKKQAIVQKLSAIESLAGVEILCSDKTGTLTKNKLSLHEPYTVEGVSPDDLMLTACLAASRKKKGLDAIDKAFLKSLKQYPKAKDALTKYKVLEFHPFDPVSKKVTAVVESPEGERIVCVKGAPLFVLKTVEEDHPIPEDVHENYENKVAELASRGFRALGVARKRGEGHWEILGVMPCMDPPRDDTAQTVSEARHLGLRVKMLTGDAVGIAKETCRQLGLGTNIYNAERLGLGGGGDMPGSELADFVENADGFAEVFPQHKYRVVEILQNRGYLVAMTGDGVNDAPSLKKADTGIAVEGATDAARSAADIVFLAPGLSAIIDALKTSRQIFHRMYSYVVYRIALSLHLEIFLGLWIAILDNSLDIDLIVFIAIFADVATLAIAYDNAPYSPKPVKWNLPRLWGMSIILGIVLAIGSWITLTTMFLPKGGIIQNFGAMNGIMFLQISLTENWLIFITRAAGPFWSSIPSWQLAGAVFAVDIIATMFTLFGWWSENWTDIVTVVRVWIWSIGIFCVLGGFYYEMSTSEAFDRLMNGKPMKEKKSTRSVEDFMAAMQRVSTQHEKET
Source text: as §1, §2, §3, §4

[3] = molecular target: SERCA1a (Ca2+-ATPase) (Oryctolagus cuniculus, UniProt P04191); experiment: SERCA ATP hydrolysis, NADH-coupled spectrophotometric assay; type: biochemical, rabbit; details: purified leaky SERCA preparation
SERCA1a (Ca2+-ATPase), sequence (P04191 1-994 isoform P04191-2): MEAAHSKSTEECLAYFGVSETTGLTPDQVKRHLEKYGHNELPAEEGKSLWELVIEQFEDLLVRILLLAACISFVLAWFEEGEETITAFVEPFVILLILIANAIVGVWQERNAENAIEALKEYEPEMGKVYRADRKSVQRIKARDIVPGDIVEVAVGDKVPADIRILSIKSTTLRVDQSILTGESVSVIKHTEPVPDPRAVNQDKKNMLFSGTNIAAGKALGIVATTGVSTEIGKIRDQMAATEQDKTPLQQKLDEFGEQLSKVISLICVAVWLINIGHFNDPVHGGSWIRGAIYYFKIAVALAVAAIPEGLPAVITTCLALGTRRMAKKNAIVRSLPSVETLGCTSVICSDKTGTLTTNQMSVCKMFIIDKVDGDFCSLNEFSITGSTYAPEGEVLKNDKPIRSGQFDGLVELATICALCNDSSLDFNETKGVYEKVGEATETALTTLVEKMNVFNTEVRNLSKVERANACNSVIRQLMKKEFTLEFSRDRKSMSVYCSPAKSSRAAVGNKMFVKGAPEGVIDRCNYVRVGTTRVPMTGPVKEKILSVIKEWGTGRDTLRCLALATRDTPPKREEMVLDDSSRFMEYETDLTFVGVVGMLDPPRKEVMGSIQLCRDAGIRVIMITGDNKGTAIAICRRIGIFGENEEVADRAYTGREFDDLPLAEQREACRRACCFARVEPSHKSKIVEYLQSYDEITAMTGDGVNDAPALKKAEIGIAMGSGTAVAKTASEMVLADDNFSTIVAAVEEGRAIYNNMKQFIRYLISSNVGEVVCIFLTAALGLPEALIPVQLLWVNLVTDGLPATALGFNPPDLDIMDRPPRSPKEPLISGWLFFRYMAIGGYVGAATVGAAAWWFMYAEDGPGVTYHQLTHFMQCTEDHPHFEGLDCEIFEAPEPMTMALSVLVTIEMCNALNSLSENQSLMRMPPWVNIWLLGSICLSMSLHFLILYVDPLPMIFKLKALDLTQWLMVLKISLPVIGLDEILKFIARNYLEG
Source text: Sarcoplasmic reticulum vesicles, prepared from the leg and back muscles of rabbits, were used to obtain purified SERCA1a by extraction with a low concentration of deoxycholate according to established methods. The resulting membrane fragments were used for enzymatic assays to test the effect of the curcuminoid compounds on ATP hydrolysis spectrophotometrically by NADH oxidation with an ATP regenerating system.

[4] = test system: S. cerevisiae RS-72 expressing AHA2; experiment: Drop test, yeast RS-72 expressing AHA2; type: cell-based; details: Saccharomyces cerevisiae, 72 h; no visible growth after 3 days at 30°C
Source text: as §1
(§5) Transformed yeast cells, cultured on synthetic galactose (SG) agar medium supplemented with adenine 40 μg/mL and L-histidine 20 μg/mL (SGAH plates) for 3 days at 30°C, were suspended in H2O to 1x solution (OD660 = 1). Serial dilutions of 0.1, 0.01, 0.001 x of the cells were then prepared and spotted adjacently onto synthetic minimal media plates containing either 2% galactose or 2% glucose at pH 5.5 (SGAH or SDAH), incorporated with different concentrations of tested compound. Growth results were recorded after incubation for 3 days at 30°C. Minimum inhibitory concentrations (MIC values) were determined as the lowest concentrations of compounds where no visible growth of cells was observed.

[5] = test system: S. cerevisiae RS-72 expressing Pma1p; experiment: Drop test, yeast RS-72 expressing Pma1p; type: cell-based; details: Saccharomyces cerevisiae, 72 h; no visible growth after 3 days at 30°C
Source text: as §1, §5

[6] = test system: S. cerevisiae strain RS-72; experiment: Drop test, yeast growth, all tested RS-72 strains; type: cell-based; details: Saccharomyces cerevisiae, RS72, 72 h, read-out: Minimum inhibitory concentration (MIC), yeast growth
Source text: as §1, §5

[7] = parameters: method as in PMID 17999464; details: due to fast metabolism; cited from earlier work
[8] = test system: PM H+-ATPase in spinach plasma membrane vesicles; experiment: Proton pumping assay (ACMA fluorescence quenching) in spinach plasma membrane vesicles; type: biochemical, Spinacia oleracea; details: 5–20 μM
Method: Baby spinach (Spinacia oleracea) leaves (50 g) were cut into small pieces and homogenized. Subsequently plasma membranes were isolated by two-phase partitioning according to [58]. Plasma membranes were collected and homogenized in the phase buffer containing 330 mM sucrose, 5 mM potassium phosphate pH 7.8, 2 mM KCl, 0.1 mM EDTA, and 1 mM DTT and stored at—80°C.
Inside-out vesicles were created from spinach plasma membranes by adding the detergent Brij-58 to the buffer. Proton transport into the vesicles was determined as described by monitoring fluorescence quenching (excitation at 412 nm, emission at 480 nm) of 9-amino-6-chloro-2-methoxyacridine (ACMA). The reaction medium contained 20 mM MOPS-KOH, pH 7.0, 40 mM K2SO4, 25 mM KNO3, 2 mM ATP, 1 μM ACMA, 60 nM valinomycin and 0.05% (w/v) Brij-58. Proton pumping reactions were started by the addition of MgSO4 to a final concentration of 2 mM, and the proton gradient was collapsed by the addition of 10 μM nigericin.

[9] = parameters: method as in doi:10.1016/S0260-8774(02)00264-9; details: cited from earlier work
[10] = 3 mM ATP, pH 6.5, 30°C, 30 min preincubation, read-out: IC50, ATP hydrolysis, AHA2

Row | Structure (SMILES) | effect on AHA2 ATPase activity [1] | IC50 [1, 10] [µM] | slope factor H of inhibition curve, AHA2 [1] | IC50 [2] [µM] | effect on Pma1p ATPase activity [2] | slope factor H of inhibition curve, Pma1p [2] | IC50 [3] [µM] | MIC [4] [µM] | MIC [5] [µM] | MIC [6] [µM] | also measured
1 | COc1cc(/C=C/C(=O)/C=C(O)/C=C/c2ccc(O)c(OC)c2)ccc1O [CM (1), Curcumin] | significantly inhibited | 60.4 ± 1.1 | ~1 | 76.1 ± 1 | significantly inhibited | ~1 | 3.9 ± 0.4 | 40 to 50 (≈ 14.7 to 18.4 µg/mL) | 60 to 70 (≈ 22.1 to 25.8 µg/mL) | ~50 (≈ 18.4 µg/mL) | bioavailability [7]: poor bioavailability
2 | COc1cc(/C=C/C(=O)/C=C(O)/C=C/c2ccc(O)cc2)ccc1O [DMCM (2), demethoxycurcumin] | significantly inhibited | 18.7 ± 1 | 2.4 | 28.9 ± 1 | significantly inhibited | 1.5 | 2.6 ± 0.9 | 20 to 30 (≈ 6.77 to 10.2 µg/mL) | 40 to 50 (≈ 13.5 to 16.9 µg/mL) | ~30 (≈ 10.2 µg/mL) | AHA2 Vmax ([1]; 10 μM demethoxycurcumin): 0.46 ± 0.02 µM/mg/min; AHA2 Vmax ([1]; 20 μM demethoxycurcumin): 0.35 ± 0.01 µM/mg/min; AHA2 Vmax ([1]; 30 μM demethoxycurcumin): 0.19 ± 0.01 µM/mg/min; AHA2 Vmax ([1]; 40 μM demethoxycurcumin): 0.11 ± 0.01 µM/mg/min; fold lower IC50 value in comparison to CM or BDCM ([1]; AHA2 and Pma1p ATP hydrolysis): 2- to 4 fold; mode of inhibition versus ATP, AHA2 ([1]; DMCM 0-40 μM, ATP 0.125–8 mM): noncompetitive inhibitor; Ki ([1]; in vitro, noncompetitive model, ATP 0.125-8 mM): 14.7 ± 0.7 µM; Ki [2]: 27.7 ± 1.2 µM; Pma1p Vmax ([2]; 10 μM demethoxycurcumin): 1.00 ± 0.13 µM/mg/min; Pma1p Vmax ([2]; 20 μM demethoxycurcumin): 0.63 ± 0.05 µM/mg/min; Pma1p Vmax ([2]; 30 μM demethoxycurcumin): 0.48 ± 0.04 µM/mg/min; Pma1p Vmax ([2]; 40 μM demethoxycurcumin): 0.39 ± 0.04 µM/mg/min; mode of inhibition versus ATP, Pma1p ([2]; DMCM 0-40 μM, ATP 0.125–8 mM): noncompetitive inhibitor; effect on H+ pumping activity [8]: dramatically reversed; chemical stability compared with CM [9]: more stable
3 | O=C(/C=C(O)/C=C/c1ccc(O)cc1)/C=C/c1ccc(O)cc1 [BDCM (3), bisdemethoxycurcumin] | significantly inhibited | – | ~1 | – | significantly inhibited | ~1 | – | 200 to 210 (≈ 61.7 to 64.7 µg/mL) | 210 to 220 (≈ 64.7 to 67.8 µg/mL) | – | IC50 [1]: 76.7 ± 1.1 µM; IC50 ([2]; 5 mM ATP, pH 5.9, 30°C, 30 min preincubation, read-out: IC50, ATP hydrolysis, Pma1p): 90.6 ± 1.1 µM; MIC ([6]; approximate values, 3 days at 30°C): ~200 µM (≈ 61.7 µg/mL)
